Assay [1] concerns the target T1, GAC (Mus musculus, UniProt D3Z7P3).
T1 construct: (residues 72-603) was cloned into a pET23a vector; His-tag with thrombin cleavage site (N, cleaved yes); made in house
T1 sequence (D3Z7P3 72-603 isoform D3Z7P3-2): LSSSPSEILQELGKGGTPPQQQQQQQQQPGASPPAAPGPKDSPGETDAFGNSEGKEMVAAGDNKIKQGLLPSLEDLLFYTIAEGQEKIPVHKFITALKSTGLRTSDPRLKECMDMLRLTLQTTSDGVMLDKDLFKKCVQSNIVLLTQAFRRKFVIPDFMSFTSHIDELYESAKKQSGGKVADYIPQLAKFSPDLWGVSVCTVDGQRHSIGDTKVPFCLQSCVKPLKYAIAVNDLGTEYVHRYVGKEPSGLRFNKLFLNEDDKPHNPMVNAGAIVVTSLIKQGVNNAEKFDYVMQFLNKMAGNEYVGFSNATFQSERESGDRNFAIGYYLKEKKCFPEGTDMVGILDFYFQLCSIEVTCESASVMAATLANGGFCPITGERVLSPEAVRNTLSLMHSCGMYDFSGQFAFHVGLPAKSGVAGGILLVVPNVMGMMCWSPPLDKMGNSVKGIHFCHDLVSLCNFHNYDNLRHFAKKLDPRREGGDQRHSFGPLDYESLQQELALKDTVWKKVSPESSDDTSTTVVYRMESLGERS
Put plainly: Real-time GAC enzyme activity assay coupled to glutamate dehydrogenase (NADH fluorescence). Format: biochemical. As to conditions: for concentration inhibiting the GAC isoform compared with parent compound 968: in vitro inhibition, FIG. 9 / FIG. 11. How it is done:
A plasmid encoding the mouse kidney-type glutaminase isoform 2 (GAC, GenBank Accession No. NP_001106854.1, which is hereby incorporated by reference in its entirety) (residues 72-603) was cloned into a pET23a vector containing an N-terminal histidine (His)-tag and thrombin cleavage site. The expressed protein was purified using Co^2+ affinity beads (Clontech), followed by His-tag cleavage with human thrombin (Haemetologic Technologies) overnight at 4° C., and subsequently purified by anion exchange (GE healthcare) and gel filtration chromatography. Purified GAC was stored in a high salt-containing buffer (20 mM Tris-HCl pH 8.5, 500 mM NaCl, 1 mM NaN3) at −80° C., following snap freezing in liquid N2 for long term use. Labeling recombinant GAC with small molecule probes was performed by exchanging 1.5 mg of enzyme into 50 mM HEPES, pH 7.2, and 100 mM NaCl (labeling buffer), using a PD10 desalting column (GE healthcare). The enzyme was then incubated with 50 μM (5-fold excess of enzyme) of either AlexaFluor 488 succinimidyl ester or QSY9 succinimidyl ester (Molecular Probes) for 1 hour at 4° C. After 1 hour, the labeling reaction was quenched with 150 mM Tris-HCl, pH 8.5, and unreacted probe was separated from labeled-enzyme using a PD10 desalting column, eluting labeled-GAC back into the high salt-containing buffer. The stoichiometry of labeling was determined using the probe manufacturer's reported molar absorptivity values and instructions. Briefly, the concentration of GAC was determined by first correcting absorbance at 280 nm (Abs280) for each probe, using the reported correction values (0.11 for AlexaFluor 488 and 0.23 for QSY-9) and their absorbance values at their absorbance maxima (495 nm and 562 nm, respectively). The corrected Abs280 was used along with the experimentally determined molar absorptivity of GAC (ε280=38,850 M−1 cm−1). AlexaFluor 488 and QSY-9 probes were quantified using their respective absorbance maxima and the manufacturer's reported molar absorptivity values (ε495=71,000 M−1 cm−1 and ε562=85,000 M−1 cm−1).
Real-time fluorescence monitoring of 968 binding and GAC activity through production of NADH was performed on a Varian Cary Eclipse Fluorometer, whereas small molecule inhibition and binding titrations were performed in a 96-well format in a Tecan Saphire absorbance and fluorescence plate reader. Samples for monitoring real-time binding of 968 to 488-GAC were prepared by adding 10 μL of varying concentrations of 968 prepared in DMSO to an equilibrated 1 mL sample of 10 nM 488-GAC, while observing 488 fluorescence (490 nm excitation/520 nm emission). Similarly, this method was replicated for monitoring real-time binding of 968 to mutant forms of GAC, namely 488-labeled GAC (GD391K) and 488-GAC (D391K, K316E, R459E). Real-time activity assays monitoring 968 binding and NADH production were prepared in 1 mL samples, where 10 units of glutamate dehydrogenase (Sigma) and 2 mM NAD+ (Sigma) were prepared in 50 mM Tris-Acetate, pH 8.5, 0.1 mM EDTA and equilibrated at 20° C. WT GAC (10 nM) was added and allowed to equilibrate 2 minutes before monitoring the fluorescence emission of 488-GAC (490 nm excitation, 520 nm emission) and NADH (340 nm excitation, 490 nm emission). Appropriate dilutions of 968 or BPTES prepared in DMSO were introduced after 30 seconds and allowed to equilibrate for 2 minutes before a 180 μL solution of K2HPO4 and glutamine was added to make a final concentration of 50 mM K2HPO4 and 20 mM glutamine, to initiate GAC activation. The activity of GAC was measured in a coupled assay, by monitoring the NADH produced by glutamate dehydrogenase, which converts the product of the glutaminase-catalyzed reaction, glutamate, to α-ketoglutarate and ammonia by reducing NAD+ to NADH. […]

Assay [2] addresses T2, 488-GAC (mouse kidney-type glutaminase isoform 2, GAC) (Mus musculus, UniProt D3Z7P3).
T2 construct: (residues 72-603) was cloned into a pET23a vector; His-tag with thrombin cleavage site (N, cleaved yes); made in house
T2 sequence (D3Z7P3 72-603 isoform D3Z7P3-2): T1 sequence (D3Z7P3 72-603 isoform D3Z7P3-2)
Put plainly: Real-time binding assay, quenching of 488-GAC fluorescence. Conditions: 10 nM 488-GAC, 10 μM BPTES. How it is done:
A plasmid encoding the mouse kidney-type glutaminase isoform 2 (GAC, GenBank Accession No. NP_001106854.1, which is hereby incorporated by reference in its entirety) (residues 72-603) was cloned into a pET23a vector containing an N-terminal histidine (His)-tag and thrombin cleavage site. The expressed protein was purified using Co^2+ affinity beads (Clontech), followed by His-tag cleavage with human thrombin (Haemetologic Technologies) overnight at 4° C., and subsequently purified by anion exchange (GE healthcare) and gel filtration chromatography. […] The stoichiometry of labeling was determined using the probe manufacturer's reported molar absorptivity values and instructions. Briefly, the concentration of GAC was determined by first correcting absorbance at 280 nm (Abs280) for each probe, using the reported correction values (0.11 for AlexaFluor 488 and 0.23 for QSY-9) and their absorbance values at their absorbance maxima (495 nm and 562 nm, respectively). The corrected Abs280 was used along with the experimentally determined molar absorptivity of GAC (ε280=38,850 M−1 cm−1). AlexaFluor 488 and QSY-9 probes were quantified using their respective absorbance maxima and the manufacturer's reported molar absorptivity values (ε495=71,000 M−1 cm−1 and ε562=85,000 M−1 cm−1). […]

In assay [3] the target is T3, 488-GAC and QSY9-GAC (Mus musculus, UniProt D3Z7P3).
T3 construct: (residues 72-603) was cloned into a pET23a vector; His-tag with thrombin cleavage site (N, cleaved yes); made in house
T3 sequence (D3Z7P3 72-603 isoform D3Z7P3-2): T1 sequence (D3Z7P3 72-603 isoform D3Z7P3-2)
As to the kind of experiment: FRET assay for GAC tetramer formation. Type of assay: binding. As to conditions: 25 nM 488-GAC and 25 nM QSY9-GAC. The procedure: Fluorescence experiments were performed using a Varian Cary Eclipse Fluorometer in the counting mode. Excitation and emission wavelengths were 490 and 520 nm, respectively. Experiments were all performed using 1-mL samples with continuous stirring at 20° C. in 50 mM Tris-Acetate, pH 8.5, 0.1 mM ethylenediamine tetraacetic acid (EDTA). For wild-type (WT) GAC titrations in the absence of inorganic phosphate, 25 nM 488-GAC was equilibrated with 25 μL of QSY9-GAC (at varying concentrations) and allowed to equilibrate for 10 minutes, at which point 75 μL of the appropriate concentration of unlabeled WT GAC was added to provide a 10-fold excess over labeled-GAC. To test whether the purified GAC mutants can form oligomers with WT GAC, 200 nM QSY9-GAC (D391K) or 200 nM QSY9-GAC (D391K, K316E, R459E) was added to an equilibrated sample of 20 nM 488-WT GAC. When assaying the effects of BPTES and 968 on oligomer formation, BPTES or 968 was added following equilibration of a sample of 25 nM QSY9-WT GAC and 25 nM 488-WT GAC. Both BPTES and 968 were prepared in DMSO, and appropriate dilutions were made so that less than 2% (v/v) DMSO was added to an experimental sample.

`CC1(C)CC(=O)C2=C(C1)c1cc(-c3ccccc3)ccc1NC2c1ccc(-c2ccccc2)cc1` (centres unmarked) [SU-15]: in assay [1], the “concentration inhibiting the GAC isoform compared with parent compound 968” value is “lower concentration than the parent compound, 968”.
For `CC1(C)CC(=O)C2=C(C1)c1c(ccc3cc4ccccc4cc13)NC2c1ccc(C2(C(F)(F)F)N=N2)cc1` (centres unmarked) [SU-24], the “concentration inhibiting the GAC isoform compared with parent compound 968” value in assay [1] was “lower concentration than the parent compound, 968”.
For the molecule `O=C(Cc1ccccc1)Nc1nnc(CCSCCc2nnc(NC(=O)Cc3ccccc3)s2)s1` [BPTES], in assay [2], the “effect on 488-GAC fluorescence” value is listed as “does not directly affect”. For the same molecule, the “inhibition of GAC activity” value in assay [1] (10 nM 488-GAC, 10 μM BPTES) is given as “strongly inhibits”. In addition, the “effect on GAC tetramer formation (488-GAC emission in mixture with QSY9-GAC)” value in assay [3] is recorded as “immediate quenching”.
With `CCN(CC)c1ccc(CNc2ccc3ccccc3c2)cc1[NH2+][O-]` [SU-31], in assay [1], the “concentration inhibiting the GAC isoform compared with parent compound 968” value is listed as “lower concentration than the parent compound, 968”.
The same measure, in the same setting: to `CN(C)c1ccc(C2Nc3ccc4ccccc4c3C3=C2C(=O)CC(c2ccccc2)C3)cc1Br` (centres unmarked) [SU-10] belongs “lower concentration than the parent compound, 968”; to `CN(C)c1ccc(C2Nc3ccc4cc5ccccc5cc4c3C3=C2C(=O)CC(C)(C)C3)cc1Br` (centres unmarked) [SU-14], “lower concentration than the parent compound, 968”; to `CN(C)c1ccc(C2Nc3c(ccc4ccccc34)C3=C2C(=O)CC(C)(C)C3)cc1Br` (centres unmarked) [SU-1], “lower concentration than the parent compound, 968”.
Consider `CN(C)c1ccc(CNc2cccc3ccccc23)cc1Br` [SU-20], for which, in assay [1], the “concentration inhibiting the GAC isoform compared with parent compound 968” value is recorded as “lower concentration than the parent compound, 968”.
The same measure, in the same setting: to `[O-][NH2+]c1cc(CNc2ccc3ccccc3c2)ccc1N1CCCC1` [SU-29] belongs “lower concentration than the parent compound, 968”.

The values above are taken from patent US10526322B2, “Inhibitors of kidney-type glutaminase, GLS-1” (CORNELL UNIVERSITY, priority 2014, dated 2020).
